From PubChem BioAssay (NCI)
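Growth conditions: 96-well plates. Treatment: test compound, 48 hours, 5 concentrations. Analysis: linear interpolation between bracketing concentrations; unreached endpoints set to highest concentration. GI50 = concentration required for 50% inhibition of growth. TGI marks complete inhibition of growth.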

What was measured:
Assay in all cases: NCI anticancer screen, dose series, 48 h; in the data active means GI50 below about 0.43 µM; inactive means the rest
[1] = tested on: 786-0 renal
[2] = tested on: A498 renal
[3] = tested on: A549 NSCLC
[4] = tested on: ACHN renal
[5] = tested on: CAKI-1 renal
[6] = tested on: COLO 205 colon
[7] = tested on: DU-145 prostate
[8] = tested on: EKVX NSCLC
[9] = tested on: HCC-2998 colon
[10] = tested on: HCT-116 colon
[11] = tested on: HCT-15 colon
[12] = tested on: HL-60(TB) leukemia
[13] = tested on: HOP-62 NSCLC
[14] = tested on: HS 578T breast
[15] = tested on: HT29 colon
[16] = tested on: IGROV1 ovarian
[17] = tested on: K-562 leukemia
[18] = tested on: KM12 colon
[19] = tested on: LOX IMVI melanoma
[20] = tested on: M14 melanoma
[21] = tested on: MALME-3M melanoma
[22] = tested on: MCF7 breast
[23] = tested on: MDA-MB-231 breast
[24] = tested on: MDA-MB-435
[25] = tested on: MDA-N
[26] = tested on: MOLT-4 leukemia
[27] = tested on: NCI-H23 lung
[28] = tested on: NCI-H522 lung
[29] = tested on: NCI/ADR-RES ovarian
[30] = tested on: OVCAR-3 ovarian
[31] = tested on: OVCAR-4 ovarian
[32] = tested on: OVCAR-5 ovarian
[33] = tested on: OVCAR-8 ovarian
[34] = tested on: PC-3 prostate
[35] = tested on: RPMI-8226 leukemia
[36] = tested on: RXF 393 renal
[37] = tested on: SF-268 CNS
[38] = tested on: SF-295 CNS
[39] = tested on: SF-539 CNS
[40] = tested on: SK-MEL-2 melanoma
[41] = tested on: SK-MEL-28 melanoma
[42] = tested on: SK-MEL-5 melanoma
[43] = tested on: SK-OV-3 ovarian
[44] = tested on: SN12C renal
[45] = tested on: SNB-75 CNS
[46] = tested on: T-47D breast
[47] = tested on: U251 CNS
[48] = tested on: UACC-257 melanoma
[49] = tested on: UACC-62 melanoma
[50] = tested on: UO-31 renal
[51] = tested on: CCRF-CEM leukemia
[52] = tested on: NCI-H226 lung
[53] = tested on: NCI-H460 lung
[54] = tested on: SNB-19 CNS
[55] = tested on: SR leukemia
[56] = tested on: SW-620 colon
[57] = tested on: TK-10 renal
[58] = tested on: BT-549 breast
[59] = tested on: HOP-92 NSCLC

O=C1C=CC(=O)c2c1nc(CBr)[nH]c2=O
87.4 µM: TGI [24]
55 µM: TGI [12]
> 100 µM: TGI [1] | TGI [2] | TGI [3] | TGI [4] | TGI [5] | TGI [6] | TGI [7] | TGI [8] | TGI [9] | TGI [10] | TGI [11] | TGI [13] | TGI [14] | TGI [15] | TGI [16] | TGI [17] | TGI [18] | TGI [19] | TGI [20] | TGI [21] | TGI [22] | TGI [23] | TGI [25] | TGI [26] | TGI [27] | TGI [28] | TGI [29] | TGI [30] | TGI [31] | TGI [32] | TGI [33] | TGI [34] | TGI [35] | TGI [36] | TGI [37] | TGI [38] | TGI [39] | TGI [40] | TGI [41] | TGI [42] | TGI [43] | TGI [44] | TGI [45] | TGI [46] | TGI [47] | TGI [48] | TGI [49] | TGI [50]

COc1ccc(/C=C/C(=O)c2ccc(Br)cc2)cc1
> 100 µM: TGI [1] | TGI [2] | TGI [3] | TGI [4] | TGI [5] | TGI [51] | TGI [6] | TGI [7] | TGI [8] | TGI [9] | TGI [10] | TGI [11] | TGI [12] | TGI [13] | TGI [14] | TGI [15] | TGI [16] | TGI [17] | TGI [18] | TGI [20] | TGI [21] | TGI [22] | TGI [23] | TGI [24] | TGI [25] | TGI [26] | TGI [52] | TGI [27] | TGI [53] | TGI [29] | TGI [31] | TGI [32] | TGI [33] | TGI [34] | TGI [35] | TGI [37] | TGI [38] | TGI [39] | TGI [40] | TGI [41] | TGI [42] | TGI [43] | TGI [44] | TGI [54] | TGI [45] | TGI [55] | TGI [56] | TGI [46] | TGI [57] | TGI [47] | TGI [49] | TGI [50]

CC/C=C\C[C@H]1C/C=C2/C(=O)C(Cl)=C[C@@H]2C/C=C\CCCC(=O)O1
2.61 µM: TGI [22]
1.21 µM: TGI [58]
1.51 µM: TGI [5]
2.39 µM: TGI [37]
0.759 µM: TGI [42]
1.85 µM: TGI [7]
1.13 µM: TGI [40]
2.26 µM: TGI [38]
2.64 µM: TGI [51]
1.89 µM: TGI [53]
1.22 µM: TGI [21] | TGI [27]
0.826 µM: TGI [9]
25 µM: TGI [14]
4.62 µM: TGI [8]
inactive: GI50 [1] 0.521 µM | GI50 [2] 0.56 µM | GI50 [3] 0.748 µM | GI50 [58] 0.524 µM | GI50 [5] 0.45 µM | GI50 [6] 0.467 µM | GI50 [7] 0.517 µM | GI50 [8] 0.805 µM | GI50 [9] 0.437 µM | GI50 [12] 0.527 µM | GI50 [13] 0.49 µM | GI50 [59] 0.499 µM | GI50 [14] 0.698 µM | GI50 [16] 0.605 µM | GI50 [20] 0.681 µM | GI50 [23] 0.733 µM | GI50 [52] 0.524 µM | GI50 [27] 0.459 µM | GI50 [53] 0.545 µM | GI50 [31] 0.952 µM | GI50 [32] 0.592 µM | GI50 [37] 0.496 µM | GI50 [38] 0.705 µM | GI50 [39] 0.523 µM | GI50 [40] 0.453 µM | GI50 [41] 0.46 µM | GI50 [43] 1.04 µM | GI50 [44] 0.575 µM | GI50 [54] 0.665 µM | GI50 [45] 1.19 µM | GI50 [46] 0.58 µM | GI50 [57] 0.597 µM
0.492 µM: TGI [35]
0.958 µM: TGI [6]
2.68 µM: TGI [33]
2.36 µM: TGI [46]
3.54 µM: TGI [54]
1.41 µM: TGI [39] | TGI [57]
0.986 µM: TGI [34]
0.677 µM: TGI [30]
1.56 µM: TGI [52]
2.2 µM: TGI [26]
2.57 µM: TGI [44]
2.7 µM: TGI [12]
1.84 µM: TGI [32]
4.61 µM: TGI [23]
0.596 µM: TGI [56]
0.52 µM: TGI [19]
1.15 µM: TGI [41]
0.802 µM: TGI [36]
1.94 µM: TGI [16]
1.19 µM: TGI [1]
0.859 µM: TGI [10]
1.6 µM: TGI [59]
1.2 µM: TGI [49]
0.799 µM: TGI [4]
3.14 µM: TGI [17]
1.07 µM: TGI [18]
3.49 µM: TGI [43]
2.37 µM: TGI [29]
1.43 µM: TGI [2] | TGI [24]
0.79 µM: TGI [15]
0.556 µM: TGI [28]
0.694 µM: TGI [47]
2.75 µM: TGI [3]
5.39 µM: TGI [45]
4.93 µM: TGI [55]
0.72 µM: TGI [11]
active: GI50 [4] 0.3 µM | GI50 [51] 0.143 µM | GI50 [10] 0.205 µM | GI50 [11] 0.109 µM | GI50 [15] 0.325 µM | GI50 [17] 0.0961 µM | GI50 [18] 0.403 µM | GI50 [19] 0.159 µM | GI50 [21] 0.398 µM | GI50 [22] 0.0836 µM | GI50 [24] 0.169 µM | GI50 [26] 0.329 µM | GI50 [28] 0.156 µM | GI50 [29] 0.423 µM | GI50 [30] 0.153 µM | GI50 [33] 0.143 µM | GI50 [34] 0.346 µM | GI50 [35] 0.0819 µM | GI50 [36] 0.4 µM | GI50 [42] 0.379 µM | GI50 [55] 0.0753 µM | GI50 [56] 0.0995 µM | GI50 [47] 0.214 µM | GI50 [49] 0.28 µM | GI50 [50] 0.352 µM
1.31 µM: TGI [13]
4.9 µM: TGI [31]
0.703 µM: TGI [50]
3.08 µM: TGI [20]
